# Test results taken from US20150148235A1, “HERBICIDE-RESISTANT SUNFLOWER PLANTS WITH MULTIPLE HERBICIDE RESISTANT ALLELES OF AHASL1 AND METHODS OF USE” (NIDERA S.A., priority 2013, published 2015).
# System: sunflower hybrids and lines (A122T, A205V, A205V/A122T)
# Assay: Field trial North Dakota 2006, phytotoxicity ratings after imazamox or imazapyr, Example 3
# Assay type: in vivo, Helianthus annuus
# Experimental: • Spray volume: 10 gallons per acre (GPA) (or 100 liters/ha) for backpack sprayer or 20 GPA (or 200 liters/ha) for tractor mounted boom • Growth Stage at Herbicide Application: 2-4 leaves
# Entry 15 (WT Maintainer line) was left unsprayed in all treatment blocks.
# Phytotoxicity ratings were assessed at 7 and 21 days following herbicide application.
# The data was subjected to an ANOVA analysis and the means from the 3 repetitions are presented in Table 7 (phytotoxicity at 7 days post-treatment) and Table 8 (phytotoxicity at 21 days post-treatment).
smiles,measurement,setting,value
COCc1cnc(C2=NC(C)(C(C)C)C(=O)N2)c(C(=O)O)c1 (centres unmarked) [imazamox],Phytotoxicity Rating (% Crop Injury),"1-hybrid (WT × IMI restorer, A205 hetero), 50 g ai/ha + 0.25% NIS, 7 DAT",8.3%
same,Phytotoxicity Rating (% Crop Injury),"1-hybrid (WT × IMI restorer, A205 hetero), 50 g ai/ha + 0.25% NIS, 21 DAT",6.7%
same,Phytotoxicity Rating (% Crop Injury),"1-hybrid (WT × IMI restorer, A205 hetero), 100 g ai/ha + 0.25% NIS, 7 DAT",35.0%
same,Phytotoxicity Rating (% Crop Injury),"1-hybrid (WT × IMI restorer, A205 hetero), 100 g ai/ha + 0.25% NIS, 21 DAT",25.0%
same,Phytotoxicity Rating (% Crop Injury),"1-hybrid (WT × IMI restorer, A205 hetero), 200 g ai/ha + 0.25% NIS, 7 DAT",48.3%
same,Phytotoxicity Rating (% Crop Injury),"1-hybrid (WT × IMI restorer, A205 hetero), 200 g ai/ha + 0.25% NIS, 21 DAT",73.3%
same,Phytotoxicity Rating (% Crop Injury),"3-hybrid (WT × IMI restorer, A205 hetero), 50 g ai/ha + 0.25% NIS, 7 DAT",11.7%
same,Phytotoxicity Rating (% Crop Injury),"3-hybrid (WT × IMI restorer, A205 hetero), 50 g ai/ha + 0.25% NIS, 21 DAT",11.7%
same,Phytotoxicity Rating (% Crop Injury),"3-hybrid (WT × IMI restorer, A205 hetero), 100 g ai/ha + 0.25% NIS, 7 DAT",46.7%
same,Phytotoxicity Rating (% Crop Injury),"3-hybrid (WT × IMI restorer, A205 hetero), 100 g ai/ha + 0.25% NIS, 21 DAT",46.7%
same,Phytotoxicity Rating (% Crop Injury),"3-hybrid (WT × IMI restorer, A205 hetero), 200 g ai/ha + 0.25% NIS, 7 DAT",60.0%
same,Phytotoxicity Rating (% Crop Injury),"3-hybrid (WT × IMI restorer, A205 hetero), 200 g ai/ha + 0.25% NIS, 21 DAT",76.7%
same,Phytotoxicity Rating (% Crop Injury),"4-line (IMI Restorer, A205 homo), 50 g ai/ha + 0.25% NIS, 7 DAT",6.7%
same,Phytotoxicity Rating (% Crop Injury),"4-line (IMI Restorer, A205 homo), 50 g ai/ha + 0.25% NIS, 21 DAT",5.0%
same,Phytotoxicity Rating (% Crop Injury),"4-line (IMI Restorer, A205 homo), 100 g ai/ha + 0.25% NIS, 7 DAT",6.7%
same,Phytotoxicity Rating (% Crop Injury),"4-line (IMI Restorer, A205 homo), 100 g ai/ha + 0.25% NIS, 21 DAT",6.7%
same,Phytotoxicity Rating (% Crop Injury),"4-line (IMI Restorer, A205 homo), 200 g ai/ha + 0.25% NIS, 7 DAT",18.3%
same,Phytotoxicity Rating (% Crop Injury),"4-line (IMI Restorer, A205 homo), 200 g ai/ha + 0.25% NIS, 21 DAT",15.0%
same,Phytotoxicity Rating (% Crop Injury),"6-hybrid (IMI CMS × IMI restorer, A205 homo), 50 g ai/ha + 0.25% NIS, 7 DAT",5.0%
same,Phytotoxicity Rating (% Crop Injury),"6-hybrid (IMI CMS × IMI restorer, A205 homo), 50 g ai/ha + 0.25% NIS, 21 DAT",0.0%
same,Phytotoxicity Rating (% Crop Injury),"6-hybrid (IMI CMS × IMI restorer, A205 homo), 100 g ai/ha + 0.25% NIS, 7 DAT",8.3%
same,Phytotoxicity Rating (% Crop Injury),"6-hybrid (IMI CMS × IMI restorer, A205 homo), 100 g ai/ha + 0.25% NIS, 21 DAT",3.3%
same,Phytotoxicity Rating (% Crop Injury),"6-hybrid (IMI CMS × IMI restorer, A205 homo), 200 g ai/ha + 0.25% NIS, 7 DAT",26.7%
same,Phytotoxicity Rating (% Crop Injury),"6-hybrid (IMI CMS × IMI restorer, A205 homo), 200 g ai/ha + 0.25% NIS, 21 DAT",21.7%
same,Phytotoxicity Rating (% Crop Injury),"7-hybrid (WT-CMS × IMI restorer, A205 hetero), 50 g ai/ha + 0.25% NIS, 7 DAT",13.3%
same,Phytotoxicity Rating (% Crop Injury),"7-hybrid (WT-CMS × IMI restorer, A205 hetero), 50 g ai/ha + 0.25% NIS, 21 DAT",3.3%
same,Phytotoxicity Rating (% Crop Injury),"7-hybrid (WT-CMS × IMI restorer, A205 hetero), 100 g ai/ha + 0.25% NIS, 7 DAT",43.3%
same,Phytotoxicity Rating (% Crop Injury),"7-hybrid (WT-CMS × IMI restorer, A205 hetero), 100 g ai/ha + 0.25% NIS, 21 DAT",40.0%
same,Phytotoxicity Rating (% Crop Injury),"7-hybrid (WT-CMS × IMI restorer, A205 hetero), 200 g ai/ha + 0.25% NIS, 7 DAT",56.7%
same,Phytotoxicity Rating (% Crop Injury),"7-hybrid (WT-CMS × IMI restorer, A205 hetero), 200 g ai/ha + 0.25% NIS, 21 DAT",78.3%
same,Phytotoxicity Rating (% Crop Injury),"8-hybrid (WT × GM40 restorer, A122 hetero), 50 g ai/ha + 0.25% NIS, 7 DAT",13.3%
same,Phytotoxicity Rating (% Crop Injury),"8-hybrid (WT × GM40 restorer, A122 hetero), 50 g ai/ha + 0.25% NIS, 21 DAT",6.7%
same,Phytotoxicity Rating (% Crop Injury),"8-hybrid (WT × GM40 restorer, A122 hetero), 100 g ai/ha + 0.25% NIS, 7 DAT",13.3%
same,Phytotoxicity Rating (% Crop Injury),"8-hybrid (WT × GM40 restorer, A122 hetero), 100 g ai/ha + 0.25% NIS, 21 DAT",11.7%
same,Phytotoxicity Rating (% Crop Injury),"8-hybrid (WT × GM40 restorer, A122 hetero), 200 g ai/ha + 0.25% NIS, 7 DAT",25.0%
same,Phytotoxicity Rating (% Crop Injury),"8-hybrid (WT × GM40 restorer, A122 hetero), 200 g ai/ha + 0.25% NIS, 21 DAT",28.3%
same,Phytotoxicity Rating (% Crop Injury),"9-line (GM40 restorer, A122 homo), 50 g ai/ha + 0.25% NIS, 7 DAT",1.7%
same,Phytotoxicity Rating (% Crop Injury),"9-line (GM40 restorer, A122 homo), 50 g ai/ha + 0.25% NIS, 21 DAT",0.0%
same,Phytotoxicity Rating (% Crop Injury),"9-line (GM40 restorer, A122 homo), 100 g ai/ha + 0.25% NIS, 7 DAT",5.0%
same,Phytotoxicity Rating (% Crop Injury),"9-line (GM40 restorer, A122 homo), 100 g ai/ha + 0.25% NIS, 21 DAT",0.0%
same,Phytotoxicity Rating (% Crop Injury),"9-line (GM40 restorer, A122 homo), 200 g ai/ha + 0.25% NIS, 7 DAT",10.0%
same,Phytotoxicity Rating (% Crop Injury),"9-line (GM40 restorer, A122 homo), 200 g ai/ha + 0.25% NIS, 21 DAT",3.3%
same,Phytotoxicity Rating (% Crop Injury),"10-hybrid (IMI CMS × GM40 restorer, A205/A122 hetero/double), 50 g ai/ha + 0.25% NIS, 7 DAT",3.3%
same,Phytotoxicity Rating (% Crop Injury),"10-hybrid (IMI CMS × GM40 restorer, A205/A122 hetero/double), 50 g ai/ha + 0.25% NIS, 21 DAT",0.0%
same,Phytotoxicity Rating (% Crop Injury),"10-hybrid (IMI CMS × GM40 restorer, A205/A122 hetero/double), 100 g ai/ha + 0.25% NIS, 7 DAT",3.3%
same,Phytotoxicity Rating (% Crop Injury),"10-hybrid (IMI CMS × GM40 restorer, A205/A122 hetero/double), 100 g ai/ha + 0.25% NIS, 21 DAT",0.0%
same,Phytotoxicity Rating (% Crop Injury),"10-hybrid (IMI CMS × GM40 restorer, A205/A122 hetero/double), 200 g ai/ha + 0.25% NIS, 7 DAT",10.0%
